Assay results as given in patent publication US10016469B2, “Composition comprising antifungal agents for treating vulvovaginitis and vaginosis” (Two Lines Co., Ltd., priority 2015, dated 2018).

Assays:
[1] = tested on: S. denitrificans YH1; assay: Antibiotic disk diffusion assay; format: cell-based; conditions: S. denitrificans YH1, MRS agar
Method: (§1) To screen antibiotics to which Gardnerella vaginalis (G. vaginalis) is sensitive, and are resistant to probiotics, antibiotics were tested using a disk diffusion assay. Columbia agar containing a 5% human red blood cell solution was used as a media for Gardnerella vaginalis (G. vaginalis, ATCC 14018) and a MRS agar was used as a media for the strains of the present invention ([…]1 and L. crispatus YH2). As the antibiotic disk, a product manufactured by OXIOD was used.

[2] = tested on: G. vaginalis, standard microorganism (ATCC 14018); assay: Antibiotic disk diffusion assay; format: cell-based, Gardnerella vaginalis; conditions: G. vaginalis ATCC 14018, Columbia agar with 5% human red blood cell solution
Method: To screen antibiotics to which Gardnerella vaginalis (G. vaginalis) is sensitive, and are resistant to probiotics, antibiotics were tested using a disk diffusion assay.
(§2) Columbia agar containing a 5% human red blood cell solution was used as a media for Gardnerella vaginalis (G. vaginalis, ATCC 14018) and a MRS agar was used as a media for the strains of the present invention (S. denitnficans YH1 and L. crispatus YH2). As the antibiotic disk, a product manufactured by OXIOD was used.
(§3) As described above, augmentin, metronidazole, and clindamycin were applied to a wild-type Gardnerella vaginalis (G. vaginalis) strain obtained from 33 patients suffering from bacterial vaginosis and a standard microorganism (ATCC 14018) and subjected to a test using a disk diffusion assay.

[3] = tested on: L. crispatus YH2; assay: Antibiotic disk diffusion assay; format: cell-based, Lactobacillus crispatus; conditions: L. crispatus YH2, MRS agar
Method: as §1

[4] = tested on: wild-type Gardnerella vaginalis (G. vaginalis) strain obtained from 33 patients suffering from bacterial vaginosis; assay: Antibiotic disk diffusion assay on clinical isolates; format: cell-based; conditions: for Diameter of inhibition zone per antibiotic, Average ± SD: average over the G. vaginalis strains of Table 11
From the text: as §2, §3

[5] = G. vaginalis strain 14-1, biotype 1
[6] = G. vaginalis strain 14-2, biotype 5
[7] = G. vaginalis strain 14-3, biotype 4
[8] = G. vaginalis strain 14-4, biotype 6
[9] = G. vaginalis strain 14-5, biotype 4
[10] = G. vaginalis strain 14-6, biotype 1
[11] = G. vaginalis strain 14-7, biotype 5
[12] = G. vaginalis strain 14-8, biotype 3
[13] = G. vaginalis strain 14-9, biotype 2
[14] = G. vaginalis strain 14-10, biotype 3
[15] = G. vaginalis strain 14-11, biotype 2
[16] = G. vaginalis strain 14-12, biotype 5
[17] = G. vaginalis strain 14-13, biotype 5
[18] = G. vaginalis strain 14-14, biotype 4
[19] = G. vaginalis strain 14-15, biotype 5
[20] = G. vaginalis strain 14-16, biotype 8
[21] = G. vaginalis strain 14-17, biotype 5
[22] = G. vaginalis strain 14-19, biotype 5
[23] = G. vaginalis strain 14-20, biotype 7
[24] = G. vaginalis strain 14-21, biotype 8
[25] = G. vaginalis strain 14-23, biotype 8
[26] = G. vaginalis strain 14-24, biotype 8
[27] = G. vaginalis strain 14-25, biotype 5
[28] = G. vaginalis strain 14-26, biotype 5
[29] = G. vaginalis strain 14-27, biotype 4
[30] = G. vaginalis strain 14-28, biotype 5
[31] = G. vaginalis strain 14-29, biotype 5
[32] = G. vaginalis strain 14-30, biotype 5
[33] = G. vaginalis strain 14-32, biotype 5
[34] = G. vaginalis strain 14-33, biotype 7
[35] = G. vaginalis strain 14-34, biotype 5
[36] = G. vaginalis strain 14-36, biotype 5
[37] = G. vaginalis strain 14-37, biotype 1

## CC1(C)S[C@@H]2[C@H](NC(=O)[C@H](N)c3ccccc3)C(=O)N2[C@H]1C(=O)O [Ampicillin]
[1]
  diameter of inhibition zone: 0 mm
[2]
  diameter of inhibition zone: 10 mm
[3]
  diameter of inhibition zone: 0 mm

## Gentamicin
[1]
  diameter of inhibition zone: 0 mm
[2]
  diameter of inhibition zone: 0 mm
[3]
  diameter of inhibition zone: 0 mm

## CCC[C@@H]1C[C@@H](C(=O)N[C@@H]([C@H]2O[C@H](SC)[C@H](O)[C@@H](O)[C@H]2O)[C@H](C)Cl)N(C)C1 [Clindamycin]
[2]
  diameter of inhibition zone: 55 mm
[4]; [5]
  Diameter of inhibition zone per antibiotic: 50 mm
[4]; [6]
  Diameter of inhibition zone per antibiotic: 60 mm
[4]; [7]
  Diameter of inhibition zone per antibiotic: 55 mm
[4]; [8]
  Diameter of inhibition zone per antibiotic: 50 mm
[4]; [9]
  Diameter of inhibition zone per antibiotic: 45 mm
[4]; [10]
  Diameter of inhibition zone per antibiotic: 45 mm
[4]; [11]
  Diameter of inhibition zone per antibiotic: 60 mm
[4]; [12]
  Diameter of inhibition zone per antibiotic: 50 mm
[4]; [13]
  Diameter of inhibition zone per antibiotic: 50 mm
[4]; [14]
  Diameter of inhibition zone per antibiotic: 55 mm
[4]; [15]
  Diameter of inhibition zone per antibiotic: 60 mm
[4]; [16]
  Diameter of inhibition zone per antibiotic: 50 mm
[4]; [17]
  Diameter of inhibition zone per antibiotic: 55 mm
[4]; [18]
  Diameter of inhibition zone per antibiotic: 50 mm
[4]; [19]
  Diameter of inhibition zone per antibiotic: 60 mm
[4]; [20]
  Diameter of inhibition zone per antibiotic: 60 mm
[4]; [21]
  Diameter of inhibition zone per antibiotic: 55 mm
[4]; [22]
  Diameter of inhibition zone per antibiotic: 55 mm
[4]; [23]
  Diameter of inhibition zone per antibiotic: 50 mm
[4]; [24]
  Diameter of inhibition zone per antibiotic: 50 mm
[4]; [25]
  Diameter of inhibition zone per antibiotic: 55 mm
[4]; [26]
  Diameter of inhibition zone per antibiotic: 50 mm
[4]; [27]
  Diameter of inhibition zone per antibiotic: 55 mm
[4]; [28]
  Diameter of inhibition zone per antibiotic: 65 mm
[4]; [29]
  Diameter of inhibition zone per antibiotic: 55 mm
[4]; [30]
  Diameter of inhibition zone per antibiotic: 60 mm
[4]; [31]
  Diameter of inhibition zone per antibiotic: 65 mm
[4]; [32]
  Diameter of inhibition zone per antibiotic: 65 mm
[4]; [33]
  Diameter of inhibition zone per antibiotic: 60 mm
[4]; [34]
  Diameter of inhibition zone per antibiotic: 55 mm
[4]; [35]
  Diameter of inhibition zone per antibiotic: 60 mm
[4]; [36]
  Diameter of inhibition zone per antibiotic: 60 mm
[4]; [37]
  Diameter of inhibition zone per antibiotic: 60 mm
[4]
  Diameter of inhibition zone per antibiotic, Average ± SD: 55.45 ± 5.5 mm
[4]; listed as clindamycin
  Diameter of inhibition zone per antibiotic, Average ± SD: 55.45±5.5 mm

## Cc1ncc([N+](=O)[O-])n1CCO [Metronidazole]
[2]
  diameter of inhibition zone: 0 mm
[4]; 21 of 33 wild-type strains, metronidazole 50 μg/disc
  share of wild-type G. vaginalis strains on which no inhibitory effect was shown: 64%
[4]; Biotype 5, 14 of 15 strains
  share of Biotype 5 strains completely resistant: 93%
[4]; [5]
  Diameter of inhibition zone per antibiotic: 27 mm
[4]; [6]
  Diameter of inhibition zone per antibiotic: 0 mm
[4]; [7]
  Diameter of inhibition zone per antibiotic: 40 mm
[4]; [8]
  Diameter of inhibition zone per antibiotic: 35 mm
[4]; [9]
  Diameter of inhibition zone per antibiotic: 35 mm
[4]; [10]
  Diameter of inhibition zone per antibiotic: 32 mm
[4]; [11]
  Diameter of inhibition zone per antibiotic: 0 mm
[4]; [12]
  Diameter of inhibition zone per antibiotic: 0 mm
[4]; [13]
  Diameter of inhibition zone per antibiotic: 0 mm
[4]; [14]
  Diameter of inhibition zone per antibiotic: 0 mm
[4]; [15]
  Diameter of inhibition zone per antibiotic: 0 mm
[4]; [16]
  Diameter of inhibition zone per antibiotic: 0 mm
[4]; [17]
  Diameter of inhibition zone per antibiotic: 0 mm
[4]; [18]
  Diameter of inhibition zone per antibiotic: 35 mm
[4]; [19]
  Diameter of inhibition zone per antibiotic: 0 mm
[4]; [20]
  Diameter of inhibition zone per antibiotic: 25 mm
[4]; [21]
  Diameter of inhibition zone per antibiotic: 0 mm
[4]; [22]
  Diameter of inhibition zone per antibiotic: 0 mm
[4]; [23]
  Diameter of inhibition zone per antibiotic: 0 mm
[4]; [24]
  Diameter of inhibition zone per antibiotic: 30 mm
[4]; [25]
  Diameter of inhibition zone per antibiotic: 33 mm
[4]; [26]
  Diameter of inhibition zone per antibiotic: 20 mm
[4]; [27]
  Diameter of inhibition zone per antibiotic: 25 mm
[4]; [28]
  Diameter of inhibition zone per antibiotic: 0 mm
[4]; [29]
  Diameter of inhibition zone per antibiotic: 0 mm
[4]; [30]
  Diameter of inhibition zone per antibiotic: 0 mm
[4]; [31]
  Diameter of inhibition zone per antibiotic: 0 mm
[4]; [32]
  Diameter of inhibition zone per antibiotic: 0 mm
[4]; [33]
  Diameter of inhibition zone per antibiotic: 0 mm
[4]; [34]
  Diameter of inhibition zone per antibiotic: 0 mm
[4]; [35]
  Diameter of inhibition zone per antibiotic: 0 mm
[4]; [36]
  Diameter of inhibition zone per antibiotic: 0 mm
[4]; [37]
  Diameter of inhibition zone per antibiotic: 20 mm
[4]; Gardnerella vaginalis, 12 sensitive wild-type strains, metronidazole 50 μg/disc, read-out: inhibition zones for the remaining 12 strains
  zone of inhibition at 50 µg/disc: 20 to 40 mm

## CO/N=C(\C(=O)N[C@@H]1C(=O)N2C(C(=O)O)=C(COC(C)=O)CS[C@H]12)c1csc(N)n1 [Cefotaxime]
[1]
  diameter of inhibition zone: 0 mm
[2]
  diameter of inhibition zone: 10 mm
[3]
  diameter of inhibition zone: 0 mm

## CN[C@H](CC(C)C)C(=O)N[C@H]1C(=O)N[C@@H](CC(N)=O)C(=O)N[C@H]2C(=O)N[C@H]3C(=O)N[C@H](C(=O)N[C@H](C(=O)O)c4cc(O)cc(O)c4-c4cc3ccc4O)[C@H](O)c3ccc(c(Cl)c3)Oc3cc2cc(c3O[C@@H]2O[C@H](CO)[C@@H](O)[C@H](O)[C@H]2O[C@H]2C[C@](C)(N)[C@H](O)[C@H](C)O2)Oc2ccc(cc2Cl)[C@H]1O [Vancomycin]
[1]
  diameter of inhibition zone: 35 mm
[2]
  diameter of inhibition zone: 40 mm
[3]
  diameter of inhibition zone: 35 mm

## CC1(C)S[C@@H]2[C@H](NC(=O)Cc3ccccc3)C(=O)N2[C@H]1C(=O)O [Penicillin G]
[1]
  diameter of inhibition zone: 0 mm
[2]
  diameter of inhibition zone: 10 mm
[3]
  diameter of inhibition zone: 0 mm

## Trimethoprim sulfamethoxazole
[1]
  diameter of inhibition zone: 0 mm
[2]
  diameter of inhibition zone: 0 mm
[3]
  diameter of inhibition zone: 0 mm

## C[C@@H](O)[C@H]1C(=O)N2C(C(=O)O)=C(SCCN=CN)C[C@H]12 [Imipenem]
[1]
  diameter of inhibition zone: 30 mm
[2]
  diameter of inhibition zone: 40 mm
[3]
  diameter of inhibition zone: 25 mm

## Augmentin
[2]
  diameter of inhibition zone: 60 mm
[4]; [5]
  Diameter of inhibition zone per antibiotic: 60 mm
[4]; [6]
  Diameter of inhibition zone per antibiotic: 33 mm
[4]; [7]
  Diameter of inhibition zone per antibiotic: 40 mm
[4]; [8]
  Diameter of inhibition zone per antibiotic: 45 mm
[4]; [9]
  Diameter of inhibition zone per antibiotic: 40 mm
[4]; [10]
  Diameter of inhibition zone per antibiotic: 60 mm
[4]; [11]
  Diameter of inhibition zone per antibiotic: 40 mm
[4]; [12]
  Diameter of inhibition zone per antibiotic: 50 mm
[4]; [13]
  Diameter of inhibition zone per antibiotic: 35 mm
[4]; [14]
  Diameter of inhibition zone per antibiotic: 35 mm
[4]; [15]
  Diameter of inhibition zone per antibiotic: 60 mm
[4]; [16]
  Diameter of inhibition zone per antibiotic: 35 mm
[4]; [17]
  Diameter of inhibition zone per antibiotic: 30 mm
[4]; [18]
  Diameter of inhibition zone per antibiotic: 40 mm
[4]; [19]
  Diameter of inhibition zone per antibiotic: 45 mm
[4]; [20]
  Diameter of inhibition zone per antibiotic: 45 mm
[4]; [21]
  Diameter of inhibition zone per antibiotic: 35 mm
[4]; [22]
  Diameter of inhibition zone per antibiotic: 40 mm
[4]; [23]
  Diameter of inhibition zone per antibiotic: 60 mm
[4]; [24]
  Diameter of inhibition zone per antibiotic: 50 mm
[4]; [25]
  Diameter of inhibition zone per antibiotic: 35 mm
[4]; [26]
  Diameter of inhibition zone per antibiotic: 50 mm
[4]; [27]
  Diameter of inhibition zone per antibiotic: 60 mm
[4]; [28]
  Diameter of inhibition zone per antibiotic: 50 mm
[4]; [29]
  Diameter of inhibition zone per antibiotic: 50 mm
[4]; [30]
  Diameter of inhibition zone per antibiotic: 30 mm
[4]; [31]
  Diameter of inhibition zone per antibiotic: 40 mm
[4]; [32]
  Diameter of inhibition zone per antibiotic: 55 mm
[4]; [33]
  Diameter of inhibition zone per antibiotic: 50 mm
[4]; [34]
  Diameter of inhibition zone per antibiotic: 45 mm
[4]; [35]
  Diameter of inhibition zone per antibiotic: 40 mm
[4]; [36]
  Diameter of inhibition zone per antibiotic: 40 mm
[4]; [37]
  Diameter of inhibition zone per antibiotic: 60 mm
[4]
  Diameter of inhibition zone per antibiotic, Average ± SD: 44.9±9.5 mm
[4]; strains of Table 11
  resistance of the G. vaginalis strains, in words: no strain was resistant

## CC1(C)S[C@@H]2[C@H](NC(=O)C(C(=O)O)c3ccccc3)C(=O)N2[C@H]1C(=O)O (stereo partly shown) [Carbenicillin]
[1]
  diameter of inhibition zone: 35 mm
[2]
  diameter of inhibition zone: 40 mm
[3]
  diameter of inhibition zone: 35 mm

## Cc1onc(-c2ccccc2)c1C(=O)N[C@@H]1C(=O)N2[C@@H]1SC(C)(C)[C@@H]2C(=O)O [Oxacillin]
[1]
  diameter of inhibition zone: 0 mm
[2]
  diameter of inhibition zone: 0 mm
[3]
  diameter of inhibition zone: 0 mm
